Test results taken from PMC10583352, “B7H3 targeting gold nanocage pH-sensitive conjugates for precise and synergistic chemo-photothermal therapy against NSCLC” (Journal of Nanobiotechnology, 2023).

What was measured:
NCI-H1299 cells [1] = experiment: Cell cycle analysis (PI/RNase, flow cytometry); assay type: cell-based, human; details: without irradiation, 1 μg/mL Dox equivalent, 24 h
Method: Next, Dox, GNCs, B7H3@GNCs, Dox@GNCs, or B7H3/Dox@GNCs (1 μg/mL Dox equivalent) were added to the culture medium. […] After the cells were fixed, RNase A solution was added to degrade RNA, and cells were stained with PI. Finally, the samples were subjected to cell cycle analysis using flow cytometry. ROS was detected using the method described above, except that the cells were stained with DCFH-DA and analyzed using flow cytometry.

[2] = Biodistribution of Dox in tumor-bearing mice; assay type: in vivo, BALB/c athymic nude male mice; details: i.v. 3 mg/kg Dox
Method: A xenograft model was established using BALB/c athymic nude male mice (weight: 20 ± 2 g) and NCI-H1299 cells. […] The collected tissues were rinsed in ice-cold physiological saline to remove the superficial blood and other debris and stored at − 80 ℃ until analysis. The collected tissues were diced into small pieces and homogenized with three volumes of saline. Subsequently, 100 μL plasma and tissue homogenate samples were spiked with 10 μL epirubicin as the internal standard and vortex-mixed with 300 μL methanol for 5 min. After 15 min of centrifugation at 15,000 × g and 4 °C to precipitate proteins, 5 μL supernatant aliquots were analyzed using HPLC–MS/MS.

NCI-H1299 lung tumor = experiment: Histological examination (H&E, CD34 IHC) of tissues of xenograft-bearing mice; assay type: in vivo; details: xenograft-bearing mice after i.v. administration
[3] = Pharmacokinetics after single i.v. administration in rats (plasma Dox, LC-MS/MS); assay type: in vivo, Sprague–Dawley rats; details: 3 mg/kg Dox equivalent, Mean ± SD, n = 6
Method: The pharmacokinetic properties of B7H3/Dox@GNCs were studied using 18 male Sprague–Dawley rats, weighing 200 ± 20 g. The rats were randomly divided into three groups (n = 6 per group) and administered Dox•HCl, Dox@GNCs, and B7H3/Dox@GNCs (3 mg/kg Dox equivalent dose) intravenously (i.v.) through the tail vein. Next, 300 μL blood samples were collected into heparinized tubes from the venous plexus at 0, 0.05, 0.13, 0.25, 0.5, 1, 1.5, 2, 4, 6, 8, 12, and 24 h. After centrifugation at 3000 × g for 15 min, the plasma samples were obtained and stored at – 80 ℃ until analysis.
The collected tissues were diced into small pieces and homogenized with three volumes of saline. Subsequently, 100 μL plasma and tissue homogenate samples were spiked with 10 μL epirubicin as the internal standard and vortex-mixed with 300 μL methanol for 5 min. After 15 min of centrifugation at 15,000 × g and 4 °C to precipitate proteins, 5 μL supernatant aliquots were analyzed using HPLC–MS/MS.

NCI-H1299 cells [4] = experiment: MTT cytotoxicity with/without NIR irradiation; assay type: cell-based, human; details: without irradiation, 24 h
Method: The cytotoxicity of B7H3/Dox@GNCs on tumor cells was assessed using the MTT assay. Briefly, NCI-H1299 cells (4 × 10^3 cells/well) were seeded in a 96-well plate and incubated for 12 h until the cells were completely attached. […] The cells were cultured for another 12 h and cell viability was determined using the MTT method.

[5] = test system: NCI-H1299 cell-derived xenograft; experiment: Antitumor efficacy in NCI-H1299 cell-derived xenograft; assay type: in vivo, BALB/c nude mice; details: 14 day treatment
Method: The heterotopic xenograft mouse model of NSCLC was established by subcutaneous injection of 1.0 × 10^7 NCI-H1299 cells into the right dorsal side of BALB/c nude mice. The tumor size and body weight of the mice were measured and recorded every 2 days. The tumor volume (mm^3) was calculated using the formula: V = W^2 × L/2, where the width (W) and length (L) were measured using an electronic caliper. When the tumor volume reached 80–100 mm^3, mice were administered i.v. Dox at a dose of 3 mg/kg in the indicated formulation at 3 day intervals via the tail vein until euthanized.

## COc1cccc2c1C(=O)c1c(O)c3c(c(O)c1C2=O)C[C@@](O)(C(=O)CO)C[C@@H]3O[C@H]1C[C@H](N)[C@H](O)[C@H](C)O1.Cl [Dox, doxorubicin hydrochloride]
NCI-H1299 cells [1]
  effect on cell cycle: stagnated in the S phase and G2/M phase
[2]
  Dox concentrations in heart, liver, lungs, spleen and kidneys versus Dox@GNCs and B7H3/Dox@GNCs groups: significantly higher
NCI-H1299 lung tumor
  heart tissue histology (H&E): Dox-induced damage to the heart was observed
[3]
  CL: 0.13 ± 0.00 L/h/kg
  MRT0-∞: 9.43 ± 0.46 h
  T1/2: 8.67 ± 0.34 h
  Vd: 1.64 ± 0.41 L/kg
NCI-H1299 cells [4]
  IC50: 2.50 µg/mL
[5]
  body weight of mice: drastic decrease in body weight
[5]; xenograft mice, i.v.
  tumor growth: suppressed tumor growth
